Experimental findings from patent publication US12472204B2, “Compound of element acid, which is in allotropic form, which enters into cellular interaction in some bone diseases” (CELAL BAYAR UNIVERSITESI DIGER MERKEZLER MUDURLUGU, priority 2020, dated 2025) are described below.

Test [1] deals with osteoblast cells where ageing model is formed by hydroxy-urea. Here is the method: (§1) The 2nd group has been determined as the boric acid group by adding 0.1 mM boric acid into the osteoblast culture medium. The 3rd group is the ageing group and has been cultured with 1 mM hydroxy-urea to the osteoblast culture medium and has been determined as the experimental brittle bone disease group. The 4th group has been determined as the group where boric acid is applied to the osteogenesis imperfecta model by applying […] boric acid to the cells where ageing model has been formed. Boric acid has been applied to 2nd and 4th groups for 72 hours and group 1 and group 3 have been cultured in their own culture media at the same durations.

Test [2] relates to osteoblast cells where hydroxy-urea is applied (in-vitro brittle bone disease model). Here is the method: as §1
[3] abbreviates: after applying boric acid, hydroxy-urea ageing model.
The mark [4] stands for this setting: 4th group: osteoblast + 1 mM hydroxy-urea + boric acid, 72 hours.

In the case of `OB(O)O` [boric acid, Boric acid], in test [1] (setting [3]), the cellular morphology result is on record as “improved”, the “immuno-reactivity of osteocalcin released by osteoblasts” value is reported as “increases” and the “immuno-reactivity of osteonectin released by osteoblasts” value is “increases”. Further, in test [1] (concluded from Ki-67 immuno-reactivity), the “proliferation in cells where ageing model is formed by hydroxy-urea” value is listed as “triggers proliferation”. The “immuno-reactivity of Ki-67 (proliferation marker)” value in test [1] (osteoblasts where boric acid is applied) was “greater”. Also, in test [2] (setting [4]), the cytoplasmic vacuoles entry is given as “begin to occur”, the “epithelioid structure of osteoblast cells” value is listed as “preserve their epithelioid structures” and the intercellular vacuoles result is reported as “decrease”. Also, the “augmentation of osteoblasts and protection of these cells from ageing” value in test [2] (boric acid applied to the in-vitro model) is “favorable effects”.
